Columns and labels:
[1] = refractive index (Na D-line) (dimensionless); xn = mol fraction of the nth substance listed; conditions: 101 kPa, Liquid, Standard Abbe refractometry, x2 = 0
[2] = xn = mol fraction of the nth substance listed; conditions: 101 kPa, Liquid, Vibrating tube method, x2 = 0
[3] = 101 kPa, Liquid, Vibrating tube method
[4] = refractive index (Na D-line) (dimensionless); conditions: 101.33 kPa, Liquid, Standard Abbe refractometry

CCC(C)=O [butanone] + COC(=O)CCCCC(=O)OC
Conditions	mass density, [2] [kg/m3]	refractive index, [1]
288.15 K	810.133	1.38153
293.15 K	804.926	1.37892
298.15 K	799.695	1.37631
303.15 K	794.435	1.37366
308.15 K	789.142	1.37102
313.15 K	783.814	1.36834
318.15 K	778.451	1.36565
323.15 K	773.047	1.36294

CCCCO [butan-1-ol] + COC(=O)CCCCC(=O)OC
Conditions	mass density, [2] [kg/m3]	refractive index, [1]
288.15 K	813.373	1.40135
293.15 K	809.573	1.39932
298.15 K	805.762	1.3973
303.15 K	801.923	1.39523
308.15 K	798.053	1.39318
313.15 K	794.147	1.3911
318.15 K	790.231	1.38901
323.15 K	786.238	1.38688

CCC(C)=O [butanone]
Conditions	mass density, [3] [kg/m3]	refractive index, [4]
288.15 K	810.133	1.38153
293.15 K	804.926	1.37892
298.15 K	799.695	1.37631
303.15 K	794.435	1.37366
308.15 K	789.142	1.37102
313.15 K	783.814	1.36834
318.15 K	778.451	1.36565
323.15 K	773.047	1.36294

CCCCO [butan-1-ol] + COC(=O)c1ccccc1C(=O)OC
Conditions	mass density, [2] [kg/m3]	refractive index, [1]
288.15 K	813.373	1.40135
293.15 K	809.573	1.39932
298.15 K	805.762	1.3973
303.15 K	801.923	1.39523
308.15 K	798.053	1.39318
313.15 K	794.147	1.3911
318.15 K	790.231	1.38901
323.15 K	786.238	1.38688

CCC(C)O (stereo unspecified) [butan-2-ol] + COC(=O)c1ccccc1C(=O)OC
Conditions	mass density, [2] [kg/m3]	refractive index, [1]
288.15 K	810.689	1.39951
293.15 K	806.646	1.39736
298.15 K	802.528	1.39515
303.15 K	798.326	1.39293
308.15 K	794.03	1.39064
313.15 K	789.632	1.38832
318.15 K	785.117	1.38596
323.15 K	780.515	1.38352

CCCCO [butan-1-ol]
Conditions	mass density, [3] [kg/m3]	refractive index, [4]
288.15 K	813.373	1.40135
293.15 K	809.573	1.39932
298.15 K	805.762	1.3973
303.15 K	801.923	1.39523
308.15 K	798.053	1.39318
313.15 K	794.147	1.3911
318.15 K	790.231	1.38901
323.15 K	786.238	1.38688

CCC(C)O (stereo unspecified) [butan-2-ol]
Conditions	mass density, [3] [kg/m3]	refractive index, [4]
288.15 K	810.689	1.39951
293.15 K	806.646	1.39736
298.15 K	802.528	1.39515
303.15 K	798.326	1.39293
308.15 K	794.03	1.39064
313.15 K	789.632	1.38832
318.15 K	785.117	1.38596
323.15 K	780.515	1.38352

COC(=O)c1ccccc1C(=O)OC [dimethyl 1,2-benzenedicarboxylate]
Conditions	mass density, [3] [kg/m3]	refractive index, [4]
288.15 K	1196.26	1.51779
293.15 K	1191.59	1.51565
298.15 K	1186.93	1.51354
303.15 K	1182.28	1.51146
308.15 K	1177.62	1.50943
313.15 K	1172.97	1.50736
318.15 K	1168.32	1.50524
323.15 K	1163.67	1.5032

CCC(C)O (stereo unspecified) [butan-2-ol] + COC(=O)CCCCC(=O)OC
Conditions	mass density, [2] [kg/m3]	refractive index, [1]
288.15 K	810.689	1.39951
293.15 K	806.646	1.39736
298.15 K	802.528	1.39515
303.15 K	798.326	1.39293
308.15 K	794.03	1.39064
313.15 K	789.632	1.38832
318.15 K	785.117	1.38596
323.15 K	780.515	1.38352

COC(=O)CCCCC(=O)OC [dimethyl 1,6-hexanedioate]
Conditions	mass density, [3] [kg/m3]	refractive index, [4]
288.15 K	1066.79	1.4305
293.15 K	1061.93	1.42842
298.15 K	1057.06	1.42636
303.15 K	1052.18	1.42429
308.15 K	1047.31	1.42222
313.15 K	1042.43	1.42017
318.15 K	1037.54	1.41819
323.15 K	1032.64	1.41614

CCC(C)=O [butanone] + COC(=O)c1ccccc1C(=O)OC
Conditions	mass density, [2] [kg/m3]	refractive index, [1]
288.15 K	810.133	1.38153
293.15 K	804.926	1.37892
298.15 K	799.695	1.37631
303.15 K	794.435	1.37366
308.15 K	789.142	1.37102
313.15 K	783.814	1.36834
318.15 K	778.451	1.36565
323.15 K	773.047	1.36294

From the NIST ThermoML archive (doi:10.1016/j.tca.2012.01.013)
